The assay concerns the target T1, human V1a receptor (Homo sapiens, UniProt P37288).
T1 construct: expressed in transfected cells; host or cells: HEK293 cells, transiently transfected; cell membranes
Briefly: human V1a receptor binding (3H-Vasopressin SPA, HEK293 membranes). Particulars: displacement of 4 nM 3H-Vasopressin, membranes of HEK293 cells transiently transfected with human V1a receptor; Ki from IC50 by Cheng-Prussoff. As for the experimental part:
The human V1a receptor was cloned by RT-PCR from total human liver RNA. The coding sequence was subcloned in an expression vector after sequencing to confirm the identity of the amplified sequence. […] Cell membranes were prepared from HEK293 cells transiently transfected with the expression vector and grown in 20 liter fermenters with the following protocol.
50 g cells are resuspended in 30 ml freshly prepared ice cold Lysis buffer (50 mM HEPES, 1 mM EDTA, 10 mM MgCl2 adjusted to pH=7.4+complete cocktail of protease inhibitor (Roche Diagnostics)). The cells are homogenized with Polytron for 1 min and sonicated on ice for 2×2 minutes at 80% intensity (Vibracell sonicator). The preparation is centrifuged 20 min at 500 g at 4° C., the pellet is discarded and the supernatant centrifuged 1 hour at 43,000 g at 4° C. (19,000 rpm). The pellet is resuspended in 12.5 ml Lysis buffer+12.5 ml Sucrose 20% and homogenized using a Polytron for 1-2 min. The protein concentration is determined by the Bradford method and aliquots are stored at −80° C. until use. For binding studies 60 mg Yttrium silicate SPA beads (Amersham) are mixed with an aliquot of membrane in binding buffer (50 mM Tris, 120 mM NaCl, 5 mM KCl, 2 mM CaCl2, 10 mM MgCl2) for 15 minutes with mixing. 50 ul of bead/membrane mixture is then added to each well of a 96 well plate, followed by 50 ul of 4 nM 3H-Vasopressin (American Radiolabeled Chemicals). For total binding measurement 100 ul of binding buffer are added to the respective wells, for non-specific binding 100 ul of […] cold vasopressin and for compound testing 100 ul of a serial dilution of each compound in 2% DMSO. The plate is incubated 1 h at room temperature, centrifuged 1 min at 1000 g and counted on a Packard Top-Count. Non-specific binding counts are subtracted from each well and data is normalized to the maximum specific binding set at 100%. To calculate an IC 50 the curve is fitted using a non-linear regression model (XLfit), and the Ki is calculated using the Cheng-Prussoff equation.
T1 sequence (P37288 whole entry): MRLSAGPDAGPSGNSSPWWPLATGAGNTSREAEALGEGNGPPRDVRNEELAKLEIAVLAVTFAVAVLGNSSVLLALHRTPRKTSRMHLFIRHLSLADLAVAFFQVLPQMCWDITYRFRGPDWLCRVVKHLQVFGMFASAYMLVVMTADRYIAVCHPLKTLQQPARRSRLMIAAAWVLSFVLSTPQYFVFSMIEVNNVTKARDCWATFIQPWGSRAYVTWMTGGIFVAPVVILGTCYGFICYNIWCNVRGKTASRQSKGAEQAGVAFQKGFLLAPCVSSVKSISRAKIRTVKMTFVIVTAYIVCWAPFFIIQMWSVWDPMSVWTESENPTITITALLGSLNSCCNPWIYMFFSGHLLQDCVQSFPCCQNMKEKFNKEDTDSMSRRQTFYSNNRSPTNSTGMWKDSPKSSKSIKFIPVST
In the case of “1′-({6-Chloro-1-[(2S)-pyrrolidin-2-ylmethyl]-1H-indol-3-yl}carbonyl)-3H-spiro[2-benzofuran-1,4′-piperidine [Example 267]”, the Ki came out at 0.0014 µM.

As to `Cc1c(C(=O)N2C[C@H](C)C3(OC(=O)c4ccccc43)[C@@H](C)C2)c2ccccc2n1Cc1ccccc1` (racemic) [Example 15, (SS,RR)-1′-[(1-benzyl-2-methyl-1H-indol-3-yl)carbonyl]-3′,5′-dimethyl-3H-spiro[2-benzofuran-1,4′-piperidin]-3-one], affinity was put at a Ki of 0.0148 µM.

In turn, `Cc1c(C(=O)N2CCC3(C=Cc4ccccc43)CC2)c2ccccc2n1Cc1ccccc1` [Example 1, 1′-[(1-benzyl-2-methyl-1H-indol-3-yl)carbonyl]spiro[indene-1,4′-piperidine]] yielded a Ki of 0.0068 µM.

Compound `Cc1c(C(=O)N2CCC3(CCc4ccccc43)CC2)c2ccccc2n1Cc1ccccc1` [Example 2, 1′-[(1-benzyl-2-methyl-1H-indol-3-yl)carbonyl]-2,3-dihydrospiro[indene-1,4′-piperidine]] returned a Ki of 0.0162 µM.

On to `O=C(c1cn(Cc2ccccc2)c2ccccc12)N1CCC2(C=Cc3ccccc32)CC1` [Example 3, 1′-[(1-benzyl-1H-indol-3-yl)carbonyl]spiro[indene-1,4′-piperidine]], for which the inhibitory constant (Ki) was determined as 0.0101 µM.

`O=C(c1c[nH]c2cc(Cl)ccc12)N1CCC2(C=Cc3ccccc32)CC1` [Example 5, 1′-[(6-chloro-1H-indol-3-yl)carbonyl]spiro[indene-1,4′-piperidine]] yielded a Ki of 0.0082 µM.

The compound `O=C(c1c[nH]c2cc(Cl)ccc12)N1CCC2(CCc3ccccc32)CC1` [Example 6, 1′-[(6-chloro-1H-indol-3-yl)carbonyl]-2,3-dihydrospiro[indene-1,4′-piperidine]] yielded a Ki of 0.0197 µM.

The compound `O=C(c1c[nH]c2cc(Cl)ccc12)N1CCC2(CC1)CNc1ccccc12` [Example 8, 1′-[(6-chloro-1H-indol-3-yl)carbonyl]-1,2-dihydrospiro[indole-3,4′-piperidine]] displayed a Ki of 0.0272 µM.

For `Cc1c(C(=O)N2CCC3(CC2)CNc2ccccc23)c2ccccc2n1Cc1ccccc1` [Example 9, 1′-[(1-benzyl-2-methyl-1H-indol-3-yl)carbonyl]-1,2-dihydrospiro[indole-3,4′-piperidine]], the Ki was 0.0097 µM.

`Cc1c(C(=O)N2CCC3(CC2)OC(=O)c2ccc(Cl)cc23)c2ccccc2n1Cc1ccccc1` [Example 10, 1′-[(1-benzyl-2-methyl-1H-indol-3-yl)carbonyl]-6-chloro-3H-spiro[2-benzofuran-1,4′-piperidin]-3-one]: the Ki amounted to 0.0127 µM.

`Cc1c(C(=O)N2CCC3(CC2)OC(=O)c2c(F)cccc23)c2ccccc2n1Cc1ccccc1` [Example 11, 1′-[(1-benzyl-2-methyl-1H-indol-3-yl)carbonyl]-4-fluoro-3H-spiro[2-benzofuran-1,4′-piperidin]-3-one] showed a Ki of 0.0112 µM.

Compound `COc1ccc2c(c1)C1(CCN(C(=O)c3c(C)n(Cc4ccccc4)c4ccccc34)CC1)OC2=O` [Example 12, 1′-[(1-benzyl-2-methyl-1H-indol-3-yl)carbonyl]-6-methoxy-3H-spiro[2-benzofuran-1,4′-piperidin]-3-one] registered a Ki of 0.0034 µM.

In the case of `COc1ccc2c(c1)C(=O)OC21CCN(C(=O)c2c(C)n(Cc3ccccc3)c3ccccc23)CC1` [Example 13, 1′-[(1-benzyl-2-methyl-1H-indol-3-yl)carbonyl]-5-methoxy-3H-spiro[2-benzofuran-1,4′-piperidin]-3-one], the Ki was found to be 0.0095 µM.

`Cc1c(C(=O)N2CCC3(CC2)OC(=O)c2cccc(Cl)c23)c2ccccc2n1Cc1ccccc1` [Example 14, 1′-[(1-benzyl-2-methyl-1H-indol-3-yl)carbonyl]-7-chloro-3H-spiro[2-benzofuran-1,4′-piperidin]-3-one] had a Ki of 0.0112 µM.

`O=C1OC2(CCN(C(=O)c3c[nH]c4cc(Cl)ccc34)CC2)c2ccccc21` [Example 16, 1′-[(6-chloro-1H-indol-3-yl)carbonyl]-3H-spiro[2-benzofuran-1,4′-piperidin]-3-one] had a Ki of 0.0044 µM.

Regarding `O=C1OC2(CCN(C(=O)c3c[nH]c4cc(Cl)ccc34)CC2)c2ccc(F)cc21` [Example 19, 1′-[(6-chloro-1H-indol-3-yl)carbonyl]-5-fluoro-3H-spiro[2-benzofuran-1,4′-piperidin]-3-one], the affinity, expressed as Ki, was 0.0068 µM.

For `O=C1OC2(CCN(C(=O)c3c[nH]c4cc(Cl)ccc34)CC2)c2cc(Cl)ccc21` [Example 20, 6-chloro-1′-[(6-chloro-1H-indol-3-yl)carbonyl]-3H-spiro[2-benzofuran-1,4′-piperidin]-3-one], the Ki turned out to be 0.0158 µM.

Compound `Cc1c(C(=O)N2CCC3(CC2)OC(=O)c2cc(F)ccc23)c2ccccc2n1Cc1ccccc1` [Example 23, 1′-[(1-benzyl-2-methyl-1H-indol-3-yl)carbonyl]-5-fluoro-3H-spiro[2-benzofuran-1,4′-piperidin]-3-one] yielded a Ki of 0.011 µM.

Take `CC1CCN(C(=O)c2[nH]c3cc(Cl)ccc3c2C(=O)N2CCC3(CC2)OC(=O)c2cc(F)ccc23)CC1` [Example 24, 1′-({6-chloro-2-[(4-methylpiperidin-1-yl)carbonyl]-1H-indol-3-yl}carbonyl)-5-fluoro-3H-spiro[2-benzofuran-1,4′-piperidin]-3-one]: the Ki stood at 0.0331 µM.

Compound `NC(=O)c1[nH]c2cc(Cl)ccc2c1C(=O)N1CCC2(CC1)OC(=O)c1cc(F)ccc12` [Example 25, 6-chloro-3-[(5-fluoro-3-oxo-1′H,3H-spiro[2-benzofuran-1,4′-piperidin]-1′-yl)carbonyl]-1H-indole-2-carboxamide] displayed a Ki of 0.0204 µM.

As for `CN(C)CCNC(=O)c1[nH]c2cc(Cl)ccc2c1C(=O)N1CCC2(CC1)OC(=O)c1cc(F)ccc12` [Example 26, 6-chloro-N-[2-(dimethylamino)ethyl]-3-[(5-fluoro-3-oxo-1′H,3H-spiro[2-benzofuran-1,4′-piperidin]-1′-yl)carbonyl]-1H-indole-2-carboxamide], the affinity, expressed as Ki, was 0.0394 µM.

The compound `CN(C)C(=O)c1[nH]c2cc(Cl)ccc2c1C(=O)N1CCC2(CC1)OC(=O)c1cc(F)ccc12` [Example 29, 6-chloro-3-[(5-fluoro-3-oxo-1′H,3H-spiro[2-benzofuran-1,4′-piperidin]-1′-yl)carbonyl]-N,N-dimethyl-1H-indole-2-carboxamide] came in with a Ki of 0.0101 µM.

For `CN(CCNC(=O)c1[nH]c2cc(Cl)ccc2c1C(=O)N1CCC2(CC1)OC(=O)c1cc(F)ccc12)C(=O)OC(C)(C)C` [Example 30, tert-butyl {2-[({6-chloro-3-[(5-fluoro-3-oxo-1′H,3H-spiro[2-benzofuran-1,4′-piperidin]-1′-yl)carbonyl]-1H-indol-2-yl}carbonyl)amino]ethyl}methylcarbamate], the affinity corresponds to a Ki of 0.0058 µM.

`CCN(CC)C(=O)c1[nH]c2cc(Cl)ccc2c1C(=O)N1CCC2(CC1)OC(=O)c1cc(F)ccc12` [Example 31, 6-chloro-N,N-diethyl-3-[(5-fluoro-3-oxo-1′H,3H-spiro[2-benzofuran-1,4′-piperidin]-1′-yl)carbonyl]-1H-indole-2-carboxamide] came in with a Ki of 0.0122 µM.

For `CN1CCN(C(=O)c2[nH]c3cc(Cl)ccc3c2C(=O)N2CCC3(CC2)OC(=O)c2cc(F)ccc23)CC1` [Example 32, 1′-({6-chloro-2-[(4-methylpiperazin-1-yl)carbonyl]-1H-indol-3-yl}carbonyl)-5-fluoro-3H-spiro[2-benzofuran-1,4′-piperidin]-3-one], affinity was put at a Ki of 0.0275 µM.

The compound `O=C1OC2(CCN(C(=O)c3c(C(=O)N4CCCCC4)[nH]c4cc(Cl)ccc34)CC2)c2ccc(F)cc21` [Example 33, 1′-{[6-chloro-2-(piperidin-1-ylcarbonyl)-1H-indol-3-yl]carbonyl}-5-fluoro-3H-spiro[2-benzofuran-1,4′-piperidin]-3-one] yielded a Ki of 0.0108 µM.

Consider `Cc1c(C(=O)N2CCC3(CC2)OC(=O)c2cc4c(cc23)OCO4)c2ccccc2n1Cc1ccccc1` [Example 34, 1′-[(1-benzyl-2-methyl-1H-indol-3-yl)carbonyl]-7H-spiro[furo[3,4-f][1,3]benzodioxole-5,4′-piperidin]-7-one], for which the affinity corresponds to a Ki of 0.0021 µM.

As to `N#CCCn1cc(C(=O)N2CCC3(CC2)OC(=O)c2ccccc23)c2ccc(Cl)cc21` [Example 35, 3-{6-chloro-3-[(3-oxo-1′H,3H-spiro[2-benzofuran-1,4′-piperidin]-1′-yl)carbonyl]-1H-indol-1-yl}propanenitrile], the Ki came to 0.0025 µM.

`N#CCn1cc(C(=O)N2CCC3(CC2)OC(=O)c2ccccc23)c2ccc(Cl)cc21` [Example 37, {6-chloro-3-[(3-oxo-1′H,3H-spiro[2-benzofuran-1,4′-piperidin]-1′-yl)carbonyl]-1H-indol-1-yl}acetonitrile] yielded a Ki of 0.0063 µM.

As usually defined, the Ki is the dissociation constant of the complex between target and ligand, obtained from inhibition or displacement. High values mean lower affinity, low ones higher affinity.

These data come from patent US7332501B2, “Indol-3-yl-carbonyl-spiro-piperidine derivatives as V1a receptor antagonists” (Hoffmann-La Roche Inc., priority 2005, dated 2008).
